Results taken from US20250025445A1, “METHOD OF CARDIOPROTECTION” (Race Oncology LTD., priority 2021, published 2025).
Where two headings read alike, the source gives them in different places.

Tests used:
[1] = cited from earlier work
[2] = system: H929 multiple myeloma cells; assay: H929 multiple myeloma cell viability (CellTiter-Glo); type: cell-based, human; settings: FTO inhibitor up to 10 μM with 1 μM doxorubicin; up to 72 hours
Method: Human multiple myeloma NCI-H929 cells were cultured using RPMI-1640 growth media (Sigma-Aldrich), supplemented with 2 mM L-glutamine (Thermo Fisher Scientific), 10% (v/v) foetal calf serum (Sigma-Aldrich) and 0.05 mM 2-mercaptoethanol (Sigma-Aldrich). Briefly, 0.5×10^6 H929 were seeded and grown in Corning® T75 flasks (Sigma-Aldrich) in an incubator at 37° C. under 5% CO2 conditions. At 80-90% confluency, the cell suspension was then collected into Corning® 50 mL centrifuge tubes (Sigma-Aldrich) and centrifuged at 300×g for 10 mins at room temperature. The resulting supernatant were discarded and H929 pellet was resuspended with 5-10 mL of pre-warmed H929 growth media. Total viable cells were enumerated with Invitrogen™ Countess Cell Counter (Thermo Fisher Scientific, New South Wales, Australia) and 1×10^4 live H929 were seeded in triplicate into Corning® 96-well white polystyrene microplate (Sigma). […] The concentrations were as follows 0 nM, 15.62 nM, 62.5 nM, 250 nM, 500 nM, 1 μM, 5 μM, and 10 μM. […] Vehicle controls were incubated with media supplemented with either sterile water or DMSO. […] This was repeated at 48 hours and 72 hours. […] Both FB23/2 and brequinar (MedChemExpress) were dissolved in dimethyl sulfoxide (DMSO; […]

[3] = system: MCF7 breast cancer cells; assay: MCF7 breast cancer cell viability (CellTiter-Glo); type: cell-based, human; settings: FTO inhibitor up to 10 μM with 1 μM doxorubicin; up to 72 hours; FIG. 13
Method: Human breast adenocarcinoma (MCF7) cells were purchased from In Vitro Technologies (Victoria, Australia) and cultured according to manufacturer's recommendations using MCF7 growth media, Low glucose Dulbecco's Modified Eagle's medium (DMEM; Sigma-Aldrich, Australia) supplemented with 10% (v/v) foetal calf serum (Sigma-Aldrich) and 1% (v/v) Penicillin-Streptomycin (Sigma-Aldrich). Briefly, 1×10^6 MCF7 were seeded and grown in Corning® T75 flasks (Sigma-Aldrich) in an incubator at 37° C. under 5% CO2 conditions. At 80-90% confluency, MCF7 were washed with Dulbecco's Phosphate Buffered Saline (Sigma-Aldrich) for 30s at room temperature and followed by incubation with Trypsin-EDTA (Sigma-Aldrich) for 5 mins at 37° C. under 5% CO2 conditions. Trypsin solution was then neutralised with 1:1 volume of MCF7 growth media. The cell suspensions were then collected into Corning® 50 mL centrifuge tubes (Sigma-Aldrich) and centrifuged at 300×g for 10 mins at room temperature. The resulting supernatants were discarded and MCF7 pellets were resuspended with 5-10 mL of pre-warmed MCF7 growth media. Total viable cells were enumerated with Invitrogen™ Countess Cell Counter (Thermo Fisher Scientific, New South Wales, Australia) and 9×10^4 live MCF7 were seeded in triplicate into Corning® 96-well white polystyrene microplate (Sigma).
(§1) Dox, Dauno and Epi, were dissolved in sterile water to make a stock concentration of 20 mM, respectively, while Tz was dissolved in sterile PBS to a stock concentration of 100 μM. […] The concentrations were as follows 0 nM, 15.62 nM, 62.5 nM, 250 nM, 500 nM, 1 μM, 5 μM, and 10 μM. […] Vehicle controls were incubated with media supplemented with either sterile water or DMSO. […] This was repeated at 48 hours and 72 hours. […] Both FB23/2 and brequinar (MedChemExpress) were dissolved in dimethyl sulfoxide (DMSO; Sigma-Aldrich) to make a stock concentration of 40 mM and 20 mM respectively.

[4] = system: Primary Human Cardiac Myocytes (HCMs); assay: Primary human cardiomyocyte cell viability (CellTiter-Glo); type: cell-based; settings: up to 72 hours; for mitigation of toxicity of carfilzomib towards primary HCMs: FTO inhibitor 0-10 μM with 1 μM carfilzomib; for mitigation of toxicity of doxorubicin towards primary HCMs: FTO inhibitor 0-10 μM with 1 μM doxorubicin
Method: Primary Human Cardiac Myocytes (HCMs) were purchased from PromoCell® (Heidelberg, Germany) and cultured according to manufacturer's recommendations using PromoCell® Myocyte growth media (5% [v/v] foetal calf serum, 0.5 ng/ml recombinant human epidermal growth factor, 2 ng/ml recombinant human basic fibroblast growth factor, 5 μg/ml recombinant human insulin) supplemented with 1% [v/v] Penicillin-Streptomycin [Sigma-Aldrich]). Briefly, 1×10^6 HCMs were seeded and grown in Corning® T75 flasks (Sigma-Aldrich, New South Wales, Australia) in an incubator at 37° C. under 5% CO2 conditions. At 80-90% confluency, HCMs were gently detached using the DetachKit (PromoCell®), collected into Corning® 50 mL centrifuge tubes (Sigma-Aldrich), and centrifuged at 300×g for 10 mins at room temperature. The resulting supernatant were discarded and HCM pellet was resuspended with 5-10 mL of pre-warmed Myocyte Growth Medium. Total viable cells were enumerated with Invitrogen™ Countess Cell Counter (Thermo Fisher Scientific, New South Wales, Australia) and 1×10^5 live HCMs were seeded in triplicate into Corning® 96-well white polystyrene microplate (Sigma).
as §1

[5] = doxorubicin 5 mg/kg alone
Text: (§2) In particular, well established cardiotoxicity markers, including left ventricular fractional shortening, heart E/A ratio, left ventricular diastolic function, left ventricular dilatation, cardiac output, plasma triglyceride levels, plasma creatine kinase-MB (CK-MB), plasma LDH (lactate dehydrogenase) and plasma brain natriuretic peptide (BNP) were monitored over a period of up to 42 days following the start of treatments delivered weekly, four times (and therefore final treatment on day 21).
(§3) Treatments were delivered to mice intravenously on days 0, 7, 14 and 21. Mice underwent echocardiography measurements at days 0, 21 and 42 to determine LVEF, FS, EDV, ESV, CO, E wave, A wave, E′, E/A, and E/E′, and blood samples were taken at days 0, 21 and 42 to assay for cardiac troponin I levels, BNP levels, CK, LDH levels and triglycerides.

[6] = Doxorubicin cardiotoxicity in mice: blood tests; settings: doxorubicin 5 mg/kg alone
Text: as §2, §3

[7] = cited from earlier work; remark: listed apart in the source
[8] = i.v. weekly x4, day 21, worsening by day 42
[9] = 42 days after start of treatment

CC(C)C[C@H](NC(=O)[C@H](CCc1ccccc1)NC(=O)CN1CCOCC1)C(=O)N[C@@H](Cc1ccccc1)C(=O)N[C@@H](CC(C)C)C(=O)[C@@]1(C)CO1 [carfilzomib]
patients with cardiotoxicity [1]: up to 10%

Cc1c(-c2ccc(-c3ccccc3F)cc2)nc2ccc(F)cc2c1C(=O)O [brequinar]
increased loss of viability of H929 cells cultured with doxorubicin [2]: neither brequinar nor FB23/2, at concentrations of up to 10 μM, resulted in any increased loss of viability | increased loss of viability of MCF7 cells cultured with doxorubicin [3]: neither brequinar nor FB23/2, at concentrations of up to 10 μM, resulted in any increased loss of viability | mitigation of toxicity of carfilzomib towards primary HCMs [4]: did not mitigate the toxicity | mitigation of toxicity of doxorubicin towards primary HCMs [4]: did not mitigate the toxicity

Cc1noc(C)c1-c1cc(Cl)c(Nc2ccccc2C(=O)NO)c(Cl)c1 [FB23/2]
increased loss of viability of H929 cells cultured with doxorubicin [2]: neither brequinar nor FB23/2, at concentrations of up to 10 μM, resulted in any increased loss of viability | increased loss of viability of MCF7 cells cultured with doxorubicin [3]: neither brequinar nor FB23/2, at concentrations of up to 10 μM, resulted in any increased loss of viability | mitigation of toxicity of carfilzomib towards primary HCMs [4]: did not mitigate the toxicity | mitigation of toxicity of doxorubicin towards primary HCMs [4]: did not mitigate the toxicity

COc1cccc2c1C(=O)c1c(O)c3c(c(O)c1C2=O)C[C@@](O)(C(=O)CO)C[C@@H]3O[C@H]1C[C@H](N)[C@H](O)[C@H](C)O1 [doxorubicin]
heart E/A ratio [5, 8]: significant cardiotoxic effects | left ventricular fractional shortening [5, 8]: significant cardiotoxic effects | cardiac output [5, 9]: significant cardiotoxic effects | left ventricular diastolic function [5, 9]: significant cardiotoxic effects | left ventricular dilatation [5, 9]: significant cardiotoxic effects | cardiac output ([5]; day 21): not significantly so | left ventricular diastolic function ([5]; day 21): not significantly so | left ventricular dilatation ([5]; day 21): not significantly so | plasma CK-MB ([6]; day 21): significant increase | plasma triglyceride levels ([6]; day 21 and day 42): significantly elevated | congestive heart failure incidence ([7]; lifetime cumulative doxorubicin exposure limited to 400-450 mg/m^2): less than 58 | incidence of congestive heart failure ([7]; patients received doxorubicin at 400 mg/m^2): 4.78 | incidence of congestive heart failure ([7]; patients received doxorubicin at 550 mg/m^2): 26% | incidence of congestive heart failure ([7]; patients received doxorubicin at 700 mg/m^2): 48%
